# Results taken from ChEMBL document CHEMBL3875162, “Synthesis and biological evaluation of new benzimidazole-thiazolidinedione hybrids as potential cytotoxic and apoptosis inducing agents” (Eur J Med Chem, 2016).
# The source made the active and inactive calls. The calls are words filed in the database; no cut-off is given here.
# Columns and labels:
# [1] = Cytotoxicity against human PC3 cells assessed as cell growth inhibition after 48 hrs by MTT assay; format: functional, cell-based; settings: PC-3, 48 h
# [2] = Cytotoxicity against human DU145 cells assessed as cell growth inhibition after 48 hrs by MTT assay; format: functional, cell-based; settings: DU-145, 48 h
# [3] = Cytotoxicity against human MDA-MB-231 cells assessed as cell growth inhibition after 48 hrs by MTT assay; format: functional, cell-based; settings: MDA-MB-231, 48 h
# A549 [4] = assay: Induction of morphological changes in human A549 cells assessed as cell shrinkage at 5 to 15 uM after 24 hrs by phase contrast microscopic method; format: functional, cell-based
# A549 [5] = assay: Induction of apoptosis in human A549 cells assessed as decrease in cell viability at 5 to 15 uM after 24 hrs by phase contrast microscopic method; format: functional, cell-based
# [6] = Cell cycle arrest in human A549 cells assessed as accumulation at G2/M phase at 5 uM after 24 hrs by propidium iodide staining-based flow cytometry (reference value: 23.3%); format: functional
# A549 [7] = assay: Induction of apoptosis in human A549 cells assessed as condensation of chromatin at 5 uM after 24 hrs by acridine orange/ethidium bromide-dual staining based fluorescence microscopic method; format: functional, cell-based
# A549 [8] = assay: Induction of apoptosis in human A549 cells assessed as cell membrane blebbing at 5 uM after 24 hrs by acridine orange/ethidium bromide-dual staining based fluorescence microscopic method; format: functional
# A549 [9] = assay: Induction of apoptosis in human A549 cells assessed as apoptotic body formation at 10 to 15 uM after 24 hrs by acridine orange/ethidium bromide-dual staining based fluorescence microscopic method; format: functional, cell-based
# [10] = Induction of apoptosis in human A549 cells assessed as irregular distribution of chromatin at 10 to 15 uM after 24 hrs by acridine orange/ethidium bromide-dual staining based fluorescence microscopic method; format: functional, cell-based
# A549 [11] = assay: Induction of apoptosis in human A549 cells assessed as destructive fragmentation of nucleus forming horse-shoe shaped structure at 10 to 15 uM after 24 hrs by acridine orange/ethidium bromide-dual staining based fluorescence microscopic method; format: functional, cell-based
# A549 [12] = assay: Induction of apoptosis in human A549 cells assessed as chromatin condensation at 5 to 15 uM after 24 hrs by DAPI staining based fluorescence microscopic method; format: functional, cell-based
# A549 [13] = assay: Induction of apoptosis in human A549 cells assessed as nuclear condensation at 5 to 15 uM after 24 hrs by DAPI staining based fluorescence microscopic method; format: functional, cell-based
# A549 [14] = assay: Induction of mitochondrial membrane potential loss in human A549 cells at 5 uM after 24 hrs by rhodamine-123 staining based flow cytometry relative to control; format: functional
# A549 [15] = assay: Induction of mitochondrial membrane potential loss in human A549 cells at 10 uM after 24 hrs by rhodamine-123 staining based flow cytometry relative to control; format: functional
# A549 [16] = assay: Induction of mitochondrial membrane potential loss in human A549 cells at 15 uM after 24 hrs by rhodamine-123 staining based flow cytometry relative to control; format: functional
# A549 [17] = assay: Induction of apoptosis in human A549 cells assessed as increase in superoxide production after 24 to 48 hrs by mitoSOX red-probe based fluorescence microscopic method; format: functional, cell-based
# A549 [18] = assay: Induction of apoptosis in human A549 cells assessed as early apoptotic cells at 5 uM after 24 hrs by Annexin V-FITC/propidium iodide staining based flow cytometry (reference value: 2.6%); format: functional
# A549 [19] = assay: Induction of apoptosis in human A549 cells assessed as late apoptotic cells at 5 uM after 24 hrs by Annexin V-FITC/propidium iodide staining based flow cytometry (reference value: 0.8%); format: functional
# A549 [20] = assay: Induction of apoptosis in human A549 cells after 24 hrs by Annexin V-FITC/propidium iodide staining based flow cytometry; format: functional, cell-based
# [21] = Antimigratory activity in human A549 cells assessed as cell migration at 5 uM after 24 hrs by phase contrast microscopy-based wound healing assay relative to control; format: functional
# [22] = Antimigratory activity in human A549 cells assessed as cell migration at 10 uM after 24 hrs by phase contrast microscopy-based wound healing assay relative to control; format: functional
# [23] = Antimigratory activity in human A549 cells assessed as cell migration at 15 uM after 48 hrs by phase contrast microscopy-based wound healing assay relative to control; format: functional
# [24] = Cell cycle arrest in human A549 cells assessed as accumulation at S phase at 15 uM after 24 hrs by propidium iodide staining-based flow cytometry (reference value: 11.5%); format: functional
# [25] = Cell cycle arrest in human A549 cells assessed as accumulation at G0/G1 phase at 5 uM after 24 hrs by propidium iodide staining-based flow cytometry (reference value: 66.6%); format: functional
# [26] = Cell cycle arrest in human A549 cells assessed as accumulation at G0/G1 phase at 10 uM after 24 hrs by propidium iodide staining-based flow cytometry (reference value: 66.6%); format: functional
# [27] = Cell cycle arrest in human A549 cells assessed as accumulation at G0/G1 phase at 15 uM after 24 hrs by propidium iodide staining-based flow cytometry (reference value: 66.6%); format: functional
# [28] = Cell cycle arrest in human A549 cells assessed as decrease in cell levels at G0/G1 phase after 24 hrs by propidium iodide staining-based flow cytometry; format: functional
# A549 [29] = assay: Induction of apoptosis in human A549 cells assessed as nucleus fragmentation at 5 to 15 uM after 24 hrs by DAPI staining based fluorescence microscopic method; format: functional, cell-based
# A549 [30] = assay: Induction of apoptosis in human A549 cells assessed as appearance of horse-shoe shaped nucleus at 5 to 15 uM after 24 hrs by DAPI staining based fluorescence microscopic method; format: functional, cell-based
# A549 [31] = assay: Induction of apoptosis in human A549 cells assessed as viable cells at 5 uM after 24 hrs by Annexin V-FITC/propidium iodide staining based flow cytometry (reference value: 94%); format: functional; settings: A549, 24 h, read-out: Activity
# A549 [32] = assay: Induction of apoptosis in human A549 cells assessed as early apoptotic cells at 10 uM after 24 hrs by Annexin V-FITC/propidium iodide staining based flow cytometry (reference value: 2.6%); format: functional
# A549 [33] = assay: Induction of apoptosis in human A549 cells assessed as late apoptotic cells at 10 uM after 24 hrs by Annexin V-FITC/propidium iodide staining based flow cytometry (reference value: 0.8%); format: functional
# A549 [34] = assay: Induction of apoptosis in human A549 cells assessed as necrotic cells at 10 uM after 24 hrs by Annexin V-FITC/propidium iodide staining based flow cytometry (reference value: 2.3%); format: functional
# A549 [35] = assay: Induction of apoptosis in human A549 cells assessed as early apoptotic cells at 15 uM after 24 hrs by Annexin V-FITC/propidium iodide staining based flow cytometry (reference value: 2.6%); format: functional
# A549 [36] = assay: Induction of apoptosis in human A549 cells assessed as late apoptotic cells at 15 uM after 24 hrs by Annexin V-FITC/propidium iodide staining based flow cytometry (reference value: 0.8%); format: functional
# A549 [37] = assay: Induction of apoptosis in human A549 cells assessed as viable cells at 15 uM after 24 hrs by Annexin V-FITC/propidium iodide staining based flow cytometry (reference value: 94%); format: functional; settings: A549, 24 h, read-out: Activity
# A549 [38] = assay: Antimigratory activity in human A549 cells after 24 hrs by phase contrast microscopy-based wound healing assay; format: functional, cell-based
compound,measurement,setting,value
Cn1c(/C=C2\SC(=O)N(CC(=O)Nc3nc(-c4ccccc4)cs3)C2=O)nc2ccccc21,IC50,[1],39.9 µM
same,IC50,[2],31.4 µM
same,IC50,[3],29.2 µM
same,Activity,A549 [4],Active
same,Activity,A549 [5],Active
same,Activity,[6],41.4%
same,Activity,A549 [7],Active
same,Activity,A549 [8],Active
same,Activity,A549 [9],Active
same,Activity,[10],Active
same,Activity,A549 [11],Active
same,Activity,A549 [12],Active
same,Activity,A549 [13],Active
same,Activity,A549 [14],24.6%
same,Activity,A549 [15],30.6%
same,Activity,A549 [16],45.8%
same,Activity,A549 [17],Dose-dependent effect
same,Activity,A549 [18],12.8%
same,Activity,A549 [19],6.2%
same,Activity,A549 [20],Dose-dependent effect
same,Activity,[21],77.8%
same,Activity,[22],74.3%
same,Activity,[23],29.6%
same,Activity,[24],13.5%
same,Activity,[25],48.9%
same,Activity,[26],44.8%
same,Activity,[27],30.5%
same,Activity,[28],Dose-dependent effect
same,Activity,A549 [29],Active
same,Activity,A549 [30],Active
same,viability at 5 µM,A549 [31],80.5%
same,Activity,A549 [32],15.8%
same,Activity,A549 [33],7.9%
same,Activity,A549 [34],3%
same,Activity,A549 [35],19.4%
same,Activity,A549 [36],11.9%
same,viability at 15 µM,A549 [37],66.8%
same,Activity,A549 [38],Dose-dependent effect
